# Patent US6180356A (priority 1998, dated 2001)
# Key:
# [1] = molecular target: diphtheria toxin (Corynephage beta, UniProt P00588); test: biochemical; assay type: biochemical, Corynebacterium diphtheriae; conditions: for quenching of the fluorescence of the 3 kD dextran: 10 μM inhibitor added before toxin, 3 kD CB-dextran, pH 4.5, control without agent about 75%; for inhibition of membrane pore formation (in words): whole diphtheria toxin; for inhibition at 10 µM: read-out: inhibition of 3 kD dextran release / pore formation; for inhibition of 3 kD dextran release / pore formation: relative to release in absence of target agent
# [2] = molecular target: T domain of diphtheria toxin (Corynephage beta, UniProt P00588); test: biochemical; assay type: biochemical, Corynebacterium diphtheriae; conditions: for quenching of 3 kD CB-dextran: control without inhibitor about 70%; for inhibition at 10 µM: read-out: inhibition of T domain membrane pore formation
# [3] = tested on: diphtheria toxin translocation across Vero cell membranes; conditions: Falnes and Olsnes 1995; cited from earlier work
# [4] = 10 μM inhibitor, about 5 μg of T domain
# [5] = 10 μM inhibitor, 1.0 μg of toxin
# Chain of T domain of diphtheria toxin (P00588 234-410 limits assumed): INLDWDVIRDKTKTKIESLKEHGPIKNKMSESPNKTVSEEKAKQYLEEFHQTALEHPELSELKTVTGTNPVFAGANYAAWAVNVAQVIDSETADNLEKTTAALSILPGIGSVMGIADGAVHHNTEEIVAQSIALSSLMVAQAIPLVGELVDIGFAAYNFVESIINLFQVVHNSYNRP
# Chain of diphtheria toxin (P00588 33-567 limits assumed): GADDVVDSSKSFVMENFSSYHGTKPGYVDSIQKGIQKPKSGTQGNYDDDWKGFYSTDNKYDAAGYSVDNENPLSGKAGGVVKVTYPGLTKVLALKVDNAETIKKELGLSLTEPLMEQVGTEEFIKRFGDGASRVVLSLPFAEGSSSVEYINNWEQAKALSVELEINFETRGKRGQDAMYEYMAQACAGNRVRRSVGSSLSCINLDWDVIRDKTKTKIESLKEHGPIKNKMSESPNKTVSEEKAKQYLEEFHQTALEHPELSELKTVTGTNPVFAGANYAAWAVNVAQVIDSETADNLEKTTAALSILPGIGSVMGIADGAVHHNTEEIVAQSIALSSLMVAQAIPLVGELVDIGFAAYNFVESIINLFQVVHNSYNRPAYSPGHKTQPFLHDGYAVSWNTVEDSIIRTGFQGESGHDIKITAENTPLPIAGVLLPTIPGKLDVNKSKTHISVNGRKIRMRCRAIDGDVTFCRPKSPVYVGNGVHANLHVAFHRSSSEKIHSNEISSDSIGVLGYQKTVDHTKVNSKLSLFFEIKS
SMILES,quenching of the fluorescence of the 3 kD dextran ([1]; 1.0 μg of toxin),inhibition of membrane pore formation (in words) ([1]; 10 μM inhibitor),"inhibition of T domain membrane pore formation (in words) [2, 4]",inhibition of diphtheria toxin translocation [3],further results
"O=S(=O)([O-])c1ccc2c(N=Nc3ccc(S(=O)(=O)[O-])c4ccccc34)c(O)c(S(=O)(=O)[O-])cc2c1.[Na+].[Na+].[Na+] [amaranth, 3-Hydroxy-4-[(4-sulfo-1-naphthalenyl)azo]2,7-naphthalenedisulfonic acid trisodium salt]",about 50%,weak inhibitor,,,inhibition at 10 µM [1]: ~30%
"O=C(Nc1cc(S(=O)(=O)[O-])cc2cc(S(=O)(=O)[O-])c(N=Nc3cc(Nc4nc(Cl)nc(Nc5ccc(S(=O)(=O)[O-])cc5)n4)ccc3S(=O)(=O)[O-])c(O)c12)c1ccccc1.[Na+].[Na+].[Na+].[Na+] [Cibacron Red, Cibacron brilliant red 3B-A]",0%,strong inhibition,strong inhibition,,"inhibition of T domain membrane pore formation ([2]; 10 μM inhibitor, about 5 μg of T domain, 3 kD CB-dextran): 87%; quenching of 3 kD CB-dextran [2, 4]: about 9%; inhibition of 3 kD dextran release / pore formation [1, 5]: 100%"
O=S(=O)(O)c1cc(N=C=S)ccc1/C=C/c1ccc(N=C=S)cc1S(=O)(=O)O [DIDS],,,,inhibitors of diphtheria toxin translocation,
CCN1C(=O)C=CC1=O [NEM],,,,inhibitors of diphtheria toxin translocation,
"O=S(=O)(O)c1ccc(N=Nc2ccc(N=Nc3c(O)c(S(=O)(=O)O)cc4cc(S(=O)(=O)O)ccc34)c(S(=O)(=O)O)c2)cc1 [Ponceau S, 3-hydroxy-4-[2-sulfo-4(4-sulfophenylazo)phenylazo]-2,7-naphthalenedisulfonic acid]",about 25%,moderate inhibition,strong inhibition,,"quenching of 3 kD CB-dextran [2, 4]: about 20%; inhibition at 10 µM [2]: ~70%; inhibition at 10 µM [1]: ~67%"
"COc1cc(S(=O)(=O)O)c2ccc3c(S(=O)(=O)O)cc(S(=O)(=O)O)c4ccc1c2c43 [MPT, 8-methoxy-pyrene 1,3,6-trisulfonic acid]",,,,,"diphtheria toxin pore formation inhibited (in words) ([1]; MPT as entrapped reporter, higher toxin concentrations, MPT released less than 3 kD CB-dextran): inhibited"
"Nc1c(S(=O)(=O)O)cc(Nc2ccc(Nc3nc(Cl)nc(Nc4ccccc4S(=O)(=O)O)n3)c(S(=O)(=O)O)c2)c2c1C(=O)c1ccccc1C2=O [Cibacron Blue, Cibacron Blue F3G-A]",,Strong inhibition,somewhat less inhibition,inhibitors of diphtheria toxin translocation,"inhibition at 10 µM [2]: ~22%; quenching for all the dextrans ([1]; 10 μM inhibitor, 1.0 μg of toxin, all the dextrans): 0%; inhibition of 3 kD dextran release / pore formation [1, 5]: completely inhibited"
